Measurements reported in US4845029A, “Method for the determination of sarcosine creatine or creatinine” (Boehringer Mannheim GmbH, priority 1985, dated 1989).

What was measured:
Type in all cases: biochemical
[1] = system: sarcosine oxidase (E.C. 1.5.3.1) from Chainia purpurogena (DSM 43 156), pure enzyme; experiment: KM value for sarcosine in stressing reagent a; conditions: pH 7.9, detergent-containing
Description: (§1) The KM values for sarcosine (phosphate buffer; TES buffer), measured at 25° C. in various stressing reagents, are 2 to 3 mmol/litre. The Vmax is about 6 U/mg. protein. The followig Table I gives, for various preparations of the enzyme according to the present invention, the KM values for sarcosine measured at 25 and at 37° C. For comparison, there are given the corresponding values for the known Bacillus enzyme.
(§2) 0.15 mole potassium phosphate or 0.1 mole TES/KOH (pH 7.9), 8.6 mmole 2,4,6-tribromo-3-hydroxybenzoic acid, 0.8 mmole 4-aminoantipyrine, 10 μmole potassium ferrocyanide, 5 mmole sodium cholate, 0.5% Lutensol ON 50, 0.2% sodium azide, 0.5 mmole Titriplex III, 2000 U lipase, 2000 U peroxidase and 10000 U ascorbate oxidase, per liter. [Lutensol ON 50 ^R is obtained from BASF AG and is n-decanol-polyglycolether having an average of 5 ethylene glycol units per molecule i.e. CH3 -(CH2)9 -(OCH2 -CH2)5 -OH. Titriplex III is the disodium salt of ethylenediaminetetracetic acid and can be obtained from Merck.]

[2] = system: known sarcosine oxidase from Bacillus sp. (comparison enzyme); experiment: KM value for sarcosine in stressing reagent a; conditions: pH 7.9, detergent-containing
Description: as §1, §2

[3] = system: sarcosine oxidase from Streptomyces flocculus (DSM 40 327), crude extract supernatant; experiment: KM value for sarcosine in stressing reagent a; conditions: 37 °C, TES buffer, pH 7.9, detergent-containing
Description: as §1, §2

[4] = system: sarcosine oxidase from Chainia purpurogena, crude extract supernatant; experiment: KM value for sarcosine in stressing reagent a; conditions: 37 °C, pH 7.9, detergent-containing
Description: as §1, §2

[5] = system: sarcosine oxidase according to the present invention, obtainable from Streptomycetaceae; experiment: KM and Vmax for sarcosine; conditions: substrate sarcosine
Description: In contradistinction thereto, the KM values of the known sarcosine oxidases which are sufficiently stable for these determinations are, under these conditions, abou 16 to 20 mmol/liter.
as §1

CNCC(=O)O [sarcosine]
Km ([1]; 25 °C, TES buffer): 2.8 mM | Km ([1]; 25 °C, phosphate buffer): 2 mM | Km ([1]; 37 °C, TES buffer): 3 mM | Km ([1]; 37 °C, phosphate buffer): 3.5 mM | Km ([2]; 25 °C, TES buffer): 20 mM | Km ([2]; 25 °C, phosphate buffer): 16 mM | Km ([2]; 37 °C, TES buffer): 20 mM | Km ([2]; 37 °C, phosphate buffer): 18 mM | Km [3]: 3.5 mM | Km ([4]; TES buffer): 3 mM | Km ([4]; phosphate buffer): 3 mM | Vmax [5]: about 6 U/mg. protein
